Data reported in patent US20250376461A1, “INDAZOLE DERIVATIVES FOR TREATING TRPM3-MEDIATED DISORDERS” (Katholieke Universiteit Leuven, priority 2022, published 2025).

What follows are compounds tested against T1, mouse TRPM3α2 (mTRPM3) ion channel (Mus musculus, UniProt J9SQF3) (assay: TRPM3 ion channel driven Ca2+ uptake, Fluo-4 AM assay, mTRPM3alpha2 overexpressing flip-in HEK293 cells stimulated with pregnenolone sulfate (50 μM)). Conditions: mTRPM3 overexpressing HEK293 cells stimulated with pregnenolone sulfate (50 μM), activity ranges A, B, C.
T1 construct: expressed in transfected cells; host or cells: flip-in HEK293
T1 sequence (J9SQF3 1-1709 isoform J9SQF3-12): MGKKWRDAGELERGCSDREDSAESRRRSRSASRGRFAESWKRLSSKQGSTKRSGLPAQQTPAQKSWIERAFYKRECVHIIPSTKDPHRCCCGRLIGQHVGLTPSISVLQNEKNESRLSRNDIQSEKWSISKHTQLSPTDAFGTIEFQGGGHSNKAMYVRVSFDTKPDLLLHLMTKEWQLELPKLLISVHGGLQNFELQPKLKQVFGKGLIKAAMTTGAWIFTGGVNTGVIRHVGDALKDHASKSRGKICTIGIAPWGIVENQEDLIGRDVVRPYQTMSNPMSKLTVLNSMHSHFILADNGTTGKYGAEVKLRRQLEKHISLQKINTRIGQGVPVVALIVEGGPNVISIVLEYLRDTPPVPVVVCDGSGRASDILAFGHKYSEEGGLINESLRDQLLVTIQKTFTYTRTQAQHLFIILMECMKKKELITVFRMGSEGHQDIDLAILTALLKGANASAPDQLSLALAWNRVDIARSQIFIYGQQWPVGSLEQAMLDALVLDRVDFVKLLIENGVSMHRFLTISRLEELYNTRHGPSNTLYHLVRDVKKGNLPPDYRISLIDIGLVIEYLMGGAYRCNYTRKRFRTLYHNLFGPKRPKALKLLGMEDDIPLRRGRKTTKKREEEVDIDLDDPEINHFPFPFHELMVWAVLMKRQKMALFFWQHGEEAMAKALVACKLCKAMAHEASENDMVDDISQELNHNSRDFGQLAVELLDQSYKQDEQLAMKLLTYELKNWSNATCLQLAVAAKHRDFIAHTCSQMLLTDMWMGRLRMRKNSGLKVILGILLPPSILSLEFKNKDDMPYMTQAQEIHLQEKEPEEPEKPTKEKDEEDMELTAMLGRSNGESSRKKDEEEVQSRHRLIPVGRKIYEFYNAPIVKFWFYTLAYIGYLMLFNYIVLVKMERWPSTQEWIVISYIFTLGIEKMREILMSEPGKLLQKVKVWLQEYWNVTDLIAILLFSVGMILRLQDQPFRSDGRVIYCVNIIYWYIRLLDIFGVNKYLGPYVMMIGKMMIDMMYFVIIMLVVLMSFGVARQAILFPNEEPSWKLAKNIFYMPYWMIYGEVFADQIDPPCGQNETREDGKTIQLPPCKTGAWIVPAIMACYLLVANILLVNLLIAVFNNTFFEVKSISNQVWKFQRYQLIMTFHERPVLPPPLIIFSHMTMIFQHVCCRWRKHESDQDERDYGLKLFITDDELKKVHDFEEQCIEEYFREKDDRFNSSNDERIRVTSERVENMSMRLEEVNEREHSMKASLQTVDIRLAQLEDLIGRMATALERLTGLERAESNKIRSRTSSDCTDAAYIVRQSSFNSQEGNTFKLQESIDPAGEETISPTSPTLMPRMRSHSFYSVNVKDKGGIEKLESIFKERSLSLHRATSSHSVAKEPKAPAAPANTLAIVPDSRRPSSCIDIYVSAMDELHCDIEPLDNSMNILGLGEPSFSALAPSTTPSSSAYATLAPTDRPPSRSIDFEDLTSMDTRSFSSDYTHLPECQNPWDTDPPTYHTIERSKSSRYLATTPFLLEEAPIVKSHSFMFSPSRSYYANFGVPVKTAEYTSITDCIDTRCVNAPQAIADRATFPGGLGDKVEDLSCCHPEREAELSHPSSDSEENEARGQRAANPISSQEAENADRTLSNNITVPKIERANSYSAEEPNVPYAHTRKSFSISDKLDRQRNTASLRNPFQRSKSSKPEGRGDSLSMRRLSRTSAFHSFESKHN
Type: cell-based
In short: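 Flip-in HEK293 cells overexpressing mTRPM3α2, loaded with Fluo-4 AM, added at ±2000 cells/well to plates holding compound plus 50 μM pregnenolone sulfate in Ca2+-containing Krebs buffer. Fluorescence (ex 485/em 535 nm) read immediately. Percent inhibition normalised between vehicle and positive-control inhibitor; IC50 derived.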

| Compound | IC50 [µM] |
| --- | --- |
| C[C@@H](O)[C@H](NC(=O)c1c2cc(OCC3CC3)ccc2nn1C)C(N)=O [Cpd 138, (2S,3R)-2-{[5-(cyclopropylmethoxy)-2-methyl-2H-indazol-3-yl]formamido}-3-hydroxybutanamide] | 1 to 20 |
| Cn1nc2ccc(OCC3CC3)cc2c1C(=O)NCCNS(C)(=O)=O [Cpd 140, 5-(cyclopropylmethoxy)-N-(2-methanesulfonamidoethyl)-2-methyl-2H-indazole-3-carboxamide] | > 20 |
| Cc1ncc(COc2ccc3nn(C)c(C(=O)N[C@@H](CO)C(N)=O)c3c2)o1 [Cpd 141, (2S)-3-hydroxy-2-({2-methyl-5-[(2-methyl-1,3-oxazol-5-yl)methoxy]-2H-indazol-3-yl}formamido)propanamide] | < 1 |
| Cc1ncc(COc2ccc3nn(C)c(C(=O)N[C@H](C(N)=O)[C@@H](C)O)c3c2)o1 [Cpd 142, (2S,3R)-3-hydroxy-2-({2-methyl-5-[(2-methyl-1,3-oxazol-5-yl)methoxy]-2H-indazol-3-yl}formamido)butanamide] | 1 to 20 |
| Cn1nc2ccc(OCC3CCCC3)cc2c1C(=O)N[C@@H](CO)C(N)=O [Cpd 143, (2S)-2-{[5-(cyclopentylmethoxy)-2-methyl-2H-indazol-3-yl]formamido}-3-hydroxypropanamide] | < 1 |
| Cn1nc2ccc(OCC3CCCC3)cc2c1C(=O)NC(C)(CO)CO [Cpd 144, 5-(cyclopentylmethoxy)-N-(1,3-dihydroxy-2-methylpropan-2-yl)-2-methyl-2H-indazole-3-carboxamide] | > 20 |
| Cn1nc2ccc(OCC3CCCC3)cc2c1C(=O)NC(C)(C)C(N)=O [Cpd 145, 2-{[5-(cyclopentylmethoxy)-2-methyl-2H-indazol-3-yl]formamido}-2-methylpropanamide] | 1 to 20 |
| Cn1nc2ccc(OCC3(C#N)CC3)cc2c1C(=O)NC(C)(CO)CO [Cpd 146, 5-[(1-cyanocyclopropyl)methoxy]-N-(1,3-dihydroxy-2-methylpropan-2-yl)-2-methyl-2H-indazole-3-carboxamide] | > 20 |
| Cc1ncc(COc2ccc3nn(C)c(C(=O)NC(CO)(CO)CO)c3c2)s1 [Cpd 147, N-[1,3-dihydroxy-2-(hydroxymethyl)propan-2-yl]-2-methyl-5-[(2-methyl-1,3-thiazol-5-yl)methoxy]-2H-indazole-3-carboxamide] | 1 to 20 |
| Cn1nc2ccc(OCC3(C#N)CC3)cc2c1C(=O)N[C@@H](CO)C(N)=O [Cpd 148, (2S)-2-({5-[(1-cyanocyclopropyl)methoxy]-2-methyl-2H-indazol-3-yl}formamido)-3-hydroxypropanamide] | 1 to 20 |
| Cc1ncc(COc2ccc3nn(C)c(C(=O)N[C@H](C(N)=O)[C@@H](C)O)c3c2)s1 [Cpd 149, (2S,3R)-3-hydroxy-2-({2-methyl-5-[(2-methyl-1,3-thiazol-5-yl)methoxy]-2H-indazol-3-yl}formamido)butanamide] | < 1 |
| Cc1ncc(COc2ccc3nn(C)c(C(=O)NCC(F)F)c3c2)s1 [Cpd 150, N-(2,2-difluoroethyl)-2-methyl-5-[(2-methyl-1,3-thiazol-5-yl)methoxy]-2H-indazole-3-carboxamide] | 1 to 20 |
| Cn1nc2ccc(OCc3ccccn3)cc2c1C(=O)N[C@@H]1CCN(CCO)C1=O [Cpd 152, N-[(3R)-1-(2-hydroxyethyl)-2-oxopyrrolidin-3-yl]-2-methyl-5-[(pyridin-2-yl)methoxy]-2H-indazole-3-carboxamide] | 1 to 20 |
| Cn1nc2ccc(OCc3ccccn3)cc2c1C(=O)N[C@H]1CCN(CCO)C1=O [Cpd 153, N-[(3S)-1-(2-hydroxyethyl)-2-oxopyrrolidin-3-yl]-2-methyl-5-[(pyridin-2-yl)methoxy]-2H-indazole-3-carboxamide] | > 20 |
| Cn1cc(COc2ccc3nn(C)c(C(=O)NC(C)(CO)C(N)=O)c3c2)cn1 (centres unmarked) [Cpd 156, 3-hydroxy-2-methyl-2-({2-methyl-5-[(1-methyl-1H-pyrazol-4-yl)methoxy]-2H-indazol-3-yl}formamido)propanamide] | 1 to 20 |
| CCC(CO)(NC(=O)c1c2cc(OCc3ccccn3)ccc2nn1C)C(N)=O (centres unmarked) [Cpd 189, 2-(hydroxymethyl)-2-({2-methyl-5-[(pyridin-2-yl)methoxy]-2H-indazol-3-yl}formamido)butanamide] | < 1 |
| CC1CC(COc2ccc3nn(C)c(C(=O)NC(C)(CO)C(N)=O)c3c2)C1 (centres unmarked) [Cpd 196, 3-hydroxy-2-methyl-2-({2-methyl-5-[(3-methylcyclobutyl)methoxy]-2H-indazol-3-yl}formamido)propenamide] | 1 to 20 |
| Cn1nc2ccc(OCc3ccccc3)cc2c1C(=O)O [Cpd 197, 5-(benzyloxy)-2-methyl-2H-indazole-3-carboxylic acid] | 1 to 20 |
| Cn1nc2ccc(OCc3ccccc3F)cc2c1C(=O)O [Cpd 198, 5-[(2-fluorophenyl)methoxy]-2-methyl-2H-indazole-3-carboxylic acid] | 1 to 20 |

| Compound | IC50 [µM] |
| --- | --- |
| Cc1ncsc1COc1ccc2nn(C)c(C(=O)O)c2c1 [Cpd 199, 2-methyl-5-[(4-methyl-1,3-thiazol-5-yl)methoxy]-2H-indazole-3-carboxylic acid] | > 20 |
| Cn1nc2ccc(OCc3ccccn3)cc2c1C(=O)NCC(F)(F)F [Cpd 204, 2-methyl-5-[(pyridin-2-yl)methoxy]-N-(2,2,2-trifluoroethyl)-2H-indazole-3-carboxamide] | > 20 |
| Cn1nc2ccc(OCc3ccccn3)cc2c1C(=O)NCCO [Cpd 205, N-(2-hydroxyethyl)-2-methyl-5-[(pyridin-2-yl)methoxy]-2H-indazole-3-carboxamide] | > 20 |
| Cn1nc2ccc(OCc3ccccn3)cc2c1C(=O)NCc1ncc[nH]1 [Cpd 206, N-[(1H-imidazol-2-yl)methyl]-2-methyl-5-[(pyridin-2-yl)methoxy]-2H-indazole-3-carboxamide] | 1 to 20 |
| CN(C)CC(C)(C)CNC(=O)c1c2cc(OCc3ccccn3)ccc2nn1C [Cpd 207, N-[3-(dimethylamino)-2,2-dimethylpropyl]-2-methyl-5-[(pyridin-2-yl)methoxy]-2H-indazole-3-carboxamide] | > 20 |
| Cn1nc2ccc(OCc3ccccn3)cc2c1C(=O)NCC(F)(F)c1ccccc1 [Cpd 208, N-(2,2-difluoro-2-phenylethyl)-2-methyl-5-[(pyridin-2-yl)methoxy]-2H-indazole-3-carboxamide] | > 20 |
| Cn1nc2ccc(OCc3ccccn3)cc2c1C(=O)NCc1c(F)cccc1C(F)(F)F [Cpd 209, N-{[2-fluoro-6-(trifluoromethyl)phenyl]methyl}-2-methyl-5-[(pyridin-2-yl)methoxy]-2H-indazole-3-carboxamide] | > 20 |
| Cn1nc2ccc(OCc3ccccn3)cc2c1C(=O)NCc1cccc(OC(F)F)c1 [Cpd 210, N-{[3-(difluoromethoxy)phenyl]methyl}-2-methyl-5-[(pyridin-2-yl)methoxy]-2H-indazole-3-carboxamide] | > 20 |
| Cn1nc2ccc(OCc3ccccn3)cc2c1C(=O)NC1(CO)CC(F)(F)C1 [Cpd 217, N-[3,3-difluoro-1-(hydroxymethyl)cyclobutyl]-2-methyl-5-[(pyridin-2-yl)methoxy]-2H-indazole-3-carboxamide] | 1 to 20 |
| C=C(Nc1cc(C(F)(F)F)cnc1O)c1c2cc(OCc3ccccn3)ccc2nn1C [Cpd 218, 3-[(1-{2-methyl-5-[(pyridin-2-yl)methoxy]-2H-indazol-3-yl}ethenyl)amino]-5-(trifluoromethyl)pyridin-2-ol] | > 20 |
| Cn1nc2ccc(OCc3ccccn3)cc2c1C(=O)NC1(CO)COC(C)(C)OC1 [Cpd 219, N-[5-(hydroxymethyl)-2,2-dimethyl-1,3-dioxan-5-yl]-2-methyl-5-[(pyridin-2-yl)methoxy]-2H-indazole-3-carboxamide] | > 20 |
| Cn1nc2ccc(OCc3ccccn3)cc2c1C(=O)NC(CO)(CCF)C(N)=O (centres unmarked) [Cpd 234, 4-fluoro-2-(hydroxymethyl)-2-({2-methyl-5-[(pyridin-2-yl)methoxy]-2H-indazol-3-yl}formamido)butanamide] | < 1 |
| Cn1nc2ccc(OCc3ccccn3)cc2c1C(=O)NC(CO)Cn1ccnc1C(F)(F)F (centres unmarked) [Cpd 242, N-{1-hydroxy-3-[2-(trifluoromethyl)-1H-imidazol-1-yl]propan-2-yl}-2-methyl-5-[(pyridin-2-yl)methoxy]-2H-indazole-3-carboxamide] | > 20 |
| O=C1NCCn2nc3ccc(OCc4ccccc4F)cc3c21 [Cpd 256, 9-[(2-fluorophenyl)methoxy]-1H,2H,3H,4H-pyrazino[1,2-b]indazol-1-one] | > 20 |
| O=C1NCCn2nc3ccc(OCc4ccccc4)cc3c21 [Cpd 257, 9-(benzyloxy)-1H,2H,3H,4H-pyrazino[1,2-b]indazol-1-one] | > 20 |
| Cn1nc2ccc(OCc3ccccn3)cc2c1C(=O)NC(CO)CO [Cpd 259, N-(1,3-dihydroxypropan-2-yl)-2-methyl-5-[(pyridin-2-yl)methoxy]-2H-indazole-3-carboxamide] | 1 to 20 |
| O=C1c2c3cc(OCc4ccccc4F)ccc3nn2CCN1C(CO)CO [Cpd 260, 2-(1,3-dihydroxypropan-2-yl)-9-[(2-fluorophenyl)methoxy]-1H,2H,3H,4H-pyrazino[1,2-b]indazol-1-one] | < 1 |
| O=C1c2c3cc(OCc4ccccc4F)ccc3nn2CCN1CCO [Cpd 261, 9-[(2-fluorophenyl)methoxy]-2-(2-hydroxyethyl)-1H,2H,3H,4H-pyrazino[1,2-b]indazol-1-one] | 1 to 20 |
| Cn1nc2ccc(OCc3ccccc3F)cc2c1C(=O)NC(CO)CO [Cpd 262, N-(1,3-dihydroxypropan-2-yl)-5-[(2-fluorophenyl)methoxy]-2-methyl-2H-indazole-3-carboxamide] | 1 to 20 |
